In US6525001B1, “Substituted pyrimidine and pyridine herbicides” (Mid-American Commercialization Corporation, priority 1997, dated 2003):

What was measured:
Test in all cases: Test B pre-/postemergence
Format in all cases: in vivo
Parameters in all cases: key: 0 is no effect; 10 is complete control
[1] = tested on: bedstraw (Galium aparine)
Description: (§1) Seeds of bedstraw (Galium aparine), blackgrass (Alopecurus myosuroides), broadleaf signalgrass (Brachiaria decumbens), cocklebur (Xanthium strumarium), corn (Zea mays), crabgrass (Digitaria sanguinalis), giant foxtail (Setaria faberii), lambsquarters (Chenopodium album), momingglory (Ipomoea hederacea), pigweed (Amaranthus retroflexus), rape (Brassica napus), soybean (Glycine max), sugar beet (Beta vulgaris), velvetleaf (Abutilon theophrasti), wheat (Triticum aestivum), wild oat (Avena fatua) and purple nutsedge (Cyperus rotundus) tubers were planted and treated preemergence with test chemicals formulated in a non-phytotoxic solvent mixture which included a surfactant.
(§2) At the same time, these crop and weed species were also treated with postemergence applications of test chemicals formulated in the same manner. Plants ranged in height from 2 to 18 cm (1- to 4-leaf stage) for postemergence treatments. Plant species in the flood test consisted of rice (Oryza sativa), smallflower flatsedge (Cyperus difformis), duck salad (Heteranthera limosa) and bamyardgrass (Echinochloa crus-galli) grown to the 2-leaf stage for testing. Treated plants and controls were maintained in a greenhouse for twelve to sixteen days, after which all species were compared to controls and visually evaluated. Plant response ratings, summarized in Table B, are based on a scale of 0 to 10 where 0 is no effect and 10 is complete control. A dash (−) response means no test result.

[2] = tested on: blackgrass (Alopecurus myosuroides)
Description: as §1, §2

[3] = tested on: broadleaf signalgrass (Brachiaria decumbens)
Description: as §1, §2

[4] = tested on: cocklebur (Xanthium strumarium)
Description: as §1, §2

corn (Zea mays) = tested on: corn (Zea mays)
Description: as §1, §2

[5] = tested on: crabgrass (Digitaria sanguinalis)
Description: as §1, §2

[6] = tested on: giant foxtail (Setaria faberii)
Description: as §1, §2

[7] = tested on: momingglory (Ipomoea hederacea)
Description: as §1, §2

[8] = tested on: pigweed (Amaranthus retroflexus)
Description: as §1, §2

[9] = tested on: purple nutsedge (Cyperus rotundus)
Description: as §1, §2

rape (Brassica napus) = tested on: rape (Brassica napus)
Description: as §1, §2

soybean (Glycine max) = tested on: soybean (Glycine max)
Description: as §1, §2

[10] = tested on: sugar beet (Beta vulgaris)
Description: as §1, §2

[11] = tested on: velvetleaf (Abutilon theophrasti)
Description: as §1, §2

[12] = tested on: wheat (Triticum aestivum)
Description: as §1, §2

wild oat (Avena fatua) = tested on: wild oat (Avena fatua)
Description: as §1, §2

Cc1cnc(-c2ccc(C(F)(F)F)cc2)nc1Cn1cnc(C(F)(F)F)n1 [Compound 11]
0: Cocklebur plant response rating ([4]; Rate 62 g/ha, Preemergence) | Corn plant response rating (corn (Zea mays); Rate 62 g/ha, Preemergence) | Corn plant response rating (corn (Zea mays); Rate 125 g/ha, Preemergence) | Plant response rating, Corn (corn (Zea mays); Rate 250 g/ha, Preemergence) | Plant response rating, Corn (corn (Zea mays); Rate 500 g/ha, Preemergence) | Nutsedge plant response rating ([9]; Rate 125 g/ha, Preemergence) | Plant response rating, Nutsedge ([9]; Rate 250 g/ha, Preemergence) | Wheat plant response rating ([12]; Rate 62 g/ha, Preemergence)
3: Blackgrass plant response rating ([2]; Rate 62 g/ha, Preemergence) | Plant response rating, Blackgrass ([2]; Rate 125 g/ha, Postemergence) | Blackgrass plant response rating ([2]; Rate 125 g/ha, Preemergence) | Plant response rating, B. signalgrass ([3]; Rate 62 g/ha, Postemergence) | Plant response rating, B. signalgrass ([3]; Rate 125 g/ha, Postemergence) | B. signalgrass plant response rating ([3]; Rate 125 g/ha, Preemergence) | Plant response rating, Cocklebur ([4]; Rate 250 g/ha, Preemergence) | Plant response rating, Corn (corn (Zea mays); Rate 62 g/ha, Postemergence) | Plant response rating, Corn (corn (Zea mays); Rate 125 g/ha, Postemergence) | Plant response rating, Corn (corn (Zea mays); Rate 250 g/ha, Postemergence) | Plant response rating, Corn (corn (Zea mays); Rate 500 g/ha, Postemergence) | Morningglory plant response rating ([7]; Rate 62 g/ha, Preemergence) | Velvetleaf plant response rating ([11]; Rate 62 g/ha, Preemergence) | Plant response rating, Wheat ([12]; Rate 250 g/ha, Postemergence) | Plant response rating, Wheat ([12]; Rate 500 g/ha, Postemergence) | Plant response rating, Wheat ([12]; Rate 500 g/ha, Preemergence) | Plant response rating, Wild oats (wild oat (Avena fatua); Rate 125 g/ha, Postemergence) | Plant response rating, Wild oats (wild oat (Avena fatua); Rate 250 g/ha, Postemergence)
4: Plant response rating, B. signalgrass ([3]; Rate 250 g/ha, Postemergence) | Plant response rating, Crabgrass ([5]; Rate 125 g/ha, Postemergence) | Plant response rating, Giant foxtail ([6]; Rate 125 g/ha, Postemergence) | Wild oats plant response rating (wild oat (Avena fatua); Rate 125 g/ha, Preemergence) | Plant response rating, Wild oats (wild oat (Avena fatua); Rate 250 g/ha, Preemergence)
9: Plant response rating, Bedstraw ([1]; Rate 125 g/ha, Postemergence) | Plant response rating, Bedstraw ([1]; Rate 250 g/ha, Preemergence) | Plant response rating, Bedstraw ([1]; Rate 500 g/ha, Preemergence) | Plant response rating, Cocklebur ([4]; Rate 250 g/ha, Postemergence) | Plant response rating, Cocklebur ([4]; Rate 500 g/ha, Postemergence) | Plant response rating, Crabgrass ([5]; Rate 250 g/ha, Preemergence) | Giant foxtail plant response rating ([6]; Rate 125 g/ha, Preemergence) | Plant response rating, Giant foxtail ([6]; Rate 250 g/ha, Preemergence) | Plant response rating, Giant foxtail ([6]; Rate 500 g/ha, Postemergence) | Plant response rating, Morningglory ([7]; Rate 250 g/ha, Preemergence) | Plant response rating, Redroot pigweed ([8]; Rate 62 g/ha, Postemergence) | Redroot pigweed plant response rating ([8]; Rate 62 g/ha, Preemergence) | Redroot pigweed plant response rating ([8]; Rate 125 g/ha, Preemergence) | Plant response rating, Rape (rape (Brassica napus); Rate 62 g/ha, Postemergence) | Rape plant response rating (rape (Brassica napus); Rate 62 g/ha, Preemergence) | Plant response rating, Rape (rape (Brassica napus); Rate 125 g/ha, Postemergence) | Rape plant response rating (rape (Brassica napus); Rate 125 g/ha, Preemergence) | Plant response rating, Soybean (soybean (Glycine max); Rate 500 g/ha, Postemergence) | Plant response rating, Sugarbeets ([10]; Rate 62 g/ha, Postemergence) | Plant response rating, Velvetleaf ([11]; Rate 500 g/ha, Postemergence)
1: Plant response rating, Nutsedge ([9]; Rate 62 g/ha, Postemergence) | Plant response rating, Nutsedge ([9]; Rate 125 g/ha, Postemergence) | Plant response rating, Nutsedge ([9]; Rate 250 g/ha, Postemergence) | Plant response rating, Nutsedge ([9]; Rate 500 g/ha, Preemergence) | Soybean plant response rating (soybean (Glycine max); Rate 62 g/ha, Preemergence) | Soybean plant response rating (soybean (Glycine max); Rate 125 g/ha, Preemergence) | Plant response rating, Soybean (soybean (Glycine max); Rate 250 g/ha, Preemergence) | Wheat plant response rating ([12]; Rate 125 g/ha, Preemergence) | Plant response rating, Wheat ([12]; Rate 250 g/ha, Preemergence)
5: Bedstraw plant response rating ([1]; Rate 62 g/ha, Preemergence) | Plant response rating, Blackgrass ([2]; Rate 250 g/ha, Preemergence) | Plant response rating, Blackgrass ([2]; Rate 500 g/ha, Postemergence) | Plant response rating, Blackgrass ([2]; Rate 500 g/ha, Preemergence) | Plant response rating, Giant foxtail ([6]; Rate 250 g/ha, Postemergence) | Plant response rating, Soybean (soybean (Glycine max); Rate 62 g/ha, Postemergence) | Plant response rating, Wild oats (wild oat (Avena fatua); Rate 500 g/ha, Postemergence)
6: Plant response rating, Crabgrass ([5]; Rate 250 g/ha, Postemergence) | Giant foxtail plant response rating ([6]; Rate 62 g/ha, Preemergence) | Velvetleaf plant response rating ([11]; Rate 125 g/ha, Preemergence) | Plant response rating, Wild oats (wild oat (Avena fatua); Rate 500 g/ha, Preemergence)
7: Plant response rating, Blackgrass ([2]; Rate 250 g/ha, Postemergence) | Plant response rating, B. signalgrass ([3]; Rate 500 g/ha, Postemergence) | Plant response rating, Cocklebur ([4]; Rate 62 g/ha, Postemergence) | Crabgrass plant response rating ([5]; Rate 62 g/ha, Preemergence) | Crabgrass plant response rating ([5]; Rate 125 g/ha, Preemergence) | Plant response rating, Crabgrass ([5]; Rate 500 g/ha, Postemergence) | Plant response rating, Morningglory ([7]; Rate 62 g/ha, Postemergence) | Plant response rating, Soybean (soybean (Glycine max); Rate 125 g/ha, Postemergence)
10: Plant response rating, Bedstraw ([1]; Rate 250 g/ha, Postemergence) | Plant response rating, Bedstraw ([1]; Rate 500 g/ha, Postemergence) | Plant response rating, Crabgrass ([5]; Rate 500 g/ha, Preemergence) | Plant response rating, Giant foxtail ([6]; Rate 500 g/ha, Preemergence) | Plant response rating, Morningglory ([7]; Rate 125 g/ha, Postemergence) | Plant response rating, Morningglory ([7]; Rate 250 g/ha, Postemergence) | Plant response rating, Morningglory ([7]; Rate 500 g/ha, Preemergence) | Plant response rating, Redroot pigweed ([8]; Rate 125 g/ha, Postemergence) | Plant response rating, Redroot pigweed ([8]; Rate 250 g/ha, Postemergence) | Plant response rating, Redroot pigweed ([8]; Rate 250 g/ha, Preemergence) | Plant response rating, Redroot pigweed ([8]; Rate 500 g/ha, Postemergence) | Plant response rating, Redroot pigweed ([8]; Rate 500 g/ha, Preemergence) | Plant response rating, Rape (rape (Brassica napus); Rate 250 g/ha, Postemergence) | Plant response rating, Rape (rape (Brassica napus); Rate 250 g/ha, Preemergence) | Plant response rating, Rape (rape (Brassica napus); Rate 500 g/ha, Postemergence) | Plant response rating, Rape (rape (Brassica napus); Rate 500 g/ha, Preemergence) | Sugarbeets plant response rating ([10]; Rate 62 g/ha, Preemergence) | Plant response rating, Sugarbeets ([10]; Rate 125 g/ha, Postemergence) | Sugarbeets plant response rating ([10]; Rate 125 g/ha, Preemergence) | Plant response rating, Sugarbeets ([10]; Rate 250 g/ha, Postemergence) | Plant response rating, Sugarbeets ([10]; Rate 250 g/ha, Preemergence) | Plant response rating, Sugarbeets ([10]; Rate 500 g/ha, Postemergence) | Plant response rating, Sugarbeets ([10]; Rate 500 g/ha, Preemergence) | Plant response rating, Velvetleaf ([11]; Rate 500 g/ha, Preemergence)
8: Plant response rating, Bedstraw ([1]; Rate 62 g/ha, Postemergence) | Bedstraw plant response rating ([1]; Rate 125 g/ha, Preemergence) | Plant response rating, B. signalgrass ([3]; Rate 250 g/ha, Preemergence) | Plant response rating, B. signalgrass ([3]; Rate 500 g/ha, Preemergence) | Plant response rating, Cocklebur ([4]; Rate 125 g/ha, Postemergence) | Morningglory plant response rating ([7]; Rate 125 g/ha, Preemergence) | Plant response rating, Soybean (soybean (Glycine max); Rate 250 g/ha, Postemergence) | Plant response rating, Velvetleaf ([11]; Rate 62 g/ha, Postemergence) | Plant response rating, Velvetleaf ([11]; Rate 125 g/ha, Postemergence) | Plant response rating, Velvetleaf ([11]; Rate 250 g/ha, Postemergence) | Plant response rating, Velvetleaf ([11]; Rate 250 g/ha, Preemergence)
2: Plant response rating, Blackgrass ([2]; Rate 62 g/ha, Postemergence) | B. signalgrass plant response rating ([3]; Rate 62 g/ha, Preemergence) | Plant response rating, Crabgrass ([5]; Rate 62 g/ha, Postemergence) | Plant response rating, Giant foxtail ([6]; Rate 62 g/ha, Postemergence) | Plant response rating, Soybean (soybean (Glycine max); Rate 500 g/ha, Preemergence) | Plant response rating, Wheat ([12]; Rate 62 g/ha, Postemergence) | Plant response rating, Wheat ([12]; Rate 125 g/ha, Postemergence) | Plant response rating, Wild oats (wild oat (Avena fatua); Rate 62 g/ha, Postemergence) | Wild oats plant response rating (wild oat (Avena fatua); Rate 62 g/ha, Preemergence)
